The series addresses ATP-dependent translocase ABCB1 (Homo sapiens, UniProt P08183). In words: TP_TRANSPORTER: transepithelial transport (basal to apical) in MDR1-expressing LLC-PK1 cells. The note with it: pig. The series is classed as functional, cell-based.

Structures are written as SMILES.

Chain of ATP-dependent translocase ABCB1 (P08183 whole entry): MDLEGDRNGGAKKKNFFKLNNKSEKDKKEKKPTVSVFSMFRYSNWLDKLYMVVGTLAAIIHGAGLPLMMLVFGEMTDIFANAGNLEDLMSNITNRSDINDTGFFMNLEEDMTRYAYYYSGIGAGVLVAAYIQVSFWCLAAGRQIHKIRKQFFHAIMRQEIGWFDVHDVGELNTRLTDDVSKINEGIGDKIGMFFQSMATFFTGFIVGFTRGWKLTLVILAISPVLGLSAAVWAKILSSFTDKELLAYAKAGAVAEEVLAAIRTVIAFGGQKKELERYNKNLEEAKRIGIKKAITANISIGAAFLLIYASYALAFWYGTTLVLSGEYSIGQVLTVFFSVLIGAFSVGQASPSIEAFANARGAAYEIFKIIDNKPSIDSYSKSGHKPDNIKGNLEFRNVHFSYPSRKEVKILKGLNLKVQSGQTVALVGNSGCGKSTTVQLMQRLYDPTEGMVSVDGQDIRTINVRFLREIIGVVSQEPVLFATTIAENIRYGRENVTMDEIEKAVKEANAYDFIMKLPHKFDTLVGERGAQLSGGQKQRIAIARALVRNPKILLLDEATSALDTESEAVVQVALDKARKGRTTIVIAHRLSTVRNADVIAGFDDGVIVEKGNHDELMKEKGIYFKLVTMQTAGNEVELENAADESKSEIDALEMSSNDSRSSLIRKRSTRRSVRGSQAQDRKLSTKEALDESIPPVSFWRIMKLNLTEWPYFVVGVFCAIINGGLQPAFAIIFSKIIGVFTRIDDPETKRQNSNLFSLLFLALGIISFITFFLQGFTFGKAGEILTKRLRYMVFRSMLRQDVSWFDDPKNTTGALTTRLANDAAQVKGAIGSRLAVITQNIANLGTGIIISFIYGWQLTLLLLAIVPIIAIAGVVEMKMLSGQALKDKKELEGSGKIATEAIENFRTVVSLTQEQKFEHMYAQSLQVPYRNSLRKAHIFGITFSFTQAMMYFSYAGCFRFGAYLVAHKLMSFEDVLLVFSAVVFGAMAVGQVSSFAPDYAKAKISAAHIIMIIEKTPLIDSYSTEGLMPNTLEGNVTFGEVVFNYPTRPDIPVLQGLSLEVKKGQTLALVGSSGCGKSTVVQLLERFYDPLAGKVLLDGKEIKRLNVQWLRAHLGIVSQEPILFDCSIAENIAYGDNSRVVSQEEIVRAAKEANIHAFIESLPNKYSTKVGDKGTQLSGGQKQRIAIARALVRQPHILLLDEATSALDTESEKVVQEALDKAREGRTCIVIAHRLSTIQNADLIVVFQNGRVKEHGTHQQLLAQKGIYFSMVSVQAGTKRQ

For the compound `C[C@]12CCC(=O)C=C1CC[C@@H]1[C@@H]2CC[C@@]2(C)[C@H]1CC[C@]2(O)C(=O)CO` [CORTODOXONE], the Activity result was “is not a substrate [-]”.

The values above are taken from ChEMBL document CHEMBL2073785, “The role of the efflux transporter P-glycoprotein in brain penetration of prednisolone” (J Endocrinol, 2002).
